Experimental findings from ChEMBL document CHEMBL1177814, “Antitumor agents 278. 4-Amino-2H-benzo[h]chromen-2-one (ABO) analogs as potent in vitro anti-cancer agents” (2010) are described below.

Where only a bound is given, the exact number is not on record here.

Format in all cases: functional
One assay deals with DU-145. In words: Cytotoxicity against human DU145 cells after 72 hrs by SRB assay. The following applies: DU-145, 72 h, read-out: ED50 (the source's name). On the technique in general: In SRB staining, fixed cells bind dye roughly in proportion to their protein.
A further assay has as its system MDA-MB-231. In words: Cytotoxicity against human MDA-MB-231 cells after 72 hrs by SRB assay. The following applies: MDA-MB-231, 72 h, read-out: ED50 (the source's name).
In a further assay the test system is A549. In words: Cytotoxicity against human A549 cells after 72 hrs by SRB assay. Conditions: A549, 72 h, read-out: ED50 (the source's name).
Another assay has as its system ZR-75-1. Nature of the assay: Cytotoxicity against human ZR-75-1 cells after 72 hrs by SRB assay. Conditions: ZR-75-1, 72 h, read-out: ED50 (the source's name).
A further assay has as its system KB. In words: Cytotoxicity against human KB cells after 72 hrs by SRB assay. The following applies: read-out: ED50 (the source's name).
The next assay deals with SK-BR-3. Nature of the assay: Cytotoxicity against human SK-BR-3 cells after 72 hrs by SRB assay. The following applies: SK-BR-3, 72 h, read-out: ED50 (the source's name).
Assay [1] can be described thus: Cytotoxicity against human KBVIN cells after 72 hrs by SRB assay. The following applies: read-out: ED50 (the source's name).

For `O=c1cc(N2CCCCC2)c2ccc3ccccc3c2o1`, the EC50 is > 30 µM with DU-145; 30 µM with MDA-MB-231; > 30 µM with A549; > 30 µM in the assay on ZR-75-1; > 30 µM in the assay with KB; > 30 µM in the assay with SK-BR-3. For the same molecule, the EC50 in assay [1] worked out at 10.9 µM.
For the molecule `O=c1cc(Nc2ccccc2Br)c2ccc3ccccc3c2o1`, the EC50 in the assay with DU-145 came out at 0.23 µM; in the assay on MDA-MB-231, 2.6 µM; with A549, 0.19 µM; with ZR-75-1, 0.38 µM; with KB, 0.16 µM; in the assay on SK-BR-3, 0.26 µM. The EC50 in assay [1] is 0.15 µM.
As for `Cc1cccc(Nc2cc(=O)oc3c2ccc2ccccc23)c1`, the EC50 was 0.14 µM in the assay on DU-145; 0.76 µM in the assay with MDA-MB-231; 0.15 µM in the assay on A549; 0.08 µM in the assay on ZR-75-1; 0.14 µM in the assay with KB; 0.15 µM with SK-BR-3. Also, the EC50 in assay [1] is 0.14 µM.
As for `COc1cccc(Nc2cc(=O)oc3c2ccc2ccccc23)c1`, the EC50 with DU-145 worked out at 0.27 µM; in the assay with MDA-MB-231, 1.3 µM; in the assay on A549, 0.29 µM; in the assay on ZR-75-1 it was 0.5 µM; in the assay with KB, 0.22 µM; in the assay on SK-BR-3 it was 0.3 µM. Moreover, the EC50 in assay [1] was determined as 0.17 µM.
Consider `O=c1cc(Nc2cccc(Br)c2)c2ccc3ccccc3c2o1`, for which the EC50 with DU-145, with MDA-MB-231, in the assay with A549, in the assay on ZR-75-1, with KB and in the assay on SK-BR-3 was > 30 µM throughout. For the same molecule, the EC50 in assay [1] is > 30 µM.
Turning to `O=c1cc(NC2CC2)c2ccc3ccccc3c2o1`, the EC50 in the assay with DU-145 was 9.6 µM; with MDA-MB-231, 10 µM; in the assay with A549 it was 29.8 µM; in the assay on ZR-75-1 it was 19.5 µM; in the assay on KB, 7.8 µM; in the assay on SK-BR-3 it was 20.8 µM. Besides, the EC50 in assay [1] came out at 9.9 µM.
On to `O=c1cc(NC2CCCCC2)c2ccc3ccccc3c2o1`, for which the EC50 in the assay with DU-145 was found to be 0.97 µM; with MDA-MB-231 it was 4.1 µM; in the assay with A549, 0.72 µM; in the assay with ZR-75-1, 5.8 µM; in the assay with KB, 0.61 µM; with SK-BR-3, 1.3 µM. In addition, the EC50 in assay [1] is 0.43 µM.
As to `COC(=O)CNc1cc(=O)oc2c1ccc1ccccc12`, the EC50 with DU-145 turned out to be 4.1 µM; with MDA-MB-231, 4.2 µM; in the assay on A549, 4.7 µM; in the assay on ZR-75-1, 6.7 µM; with KB, 4.6 µM; in the assay with SK-BR-3 it was 3.8 µM. Further, in assay [1], the EC50 amounted to 3.1 µM.
Consider `O=c1cc(Nc2ccc(Br)cc2)c2ccc3ccccc3c2o1`, for which the EC50 in the assay with DU-145 was found to be 0.52 µM; in the assay on MDA-MB-231, 6.8 µM; in the assay with A549 it was 0.72 µM; in the assay on ZR-75-1, 3.1 µM; with KB, 0.41 µM; in the assay with SK-BR-3, 0.5 µM. Moreover, in assay [1], the EC50 came to 0.47 µM.
Regarding `Cc1ccccc1Nc1cc(=O)oc2c1ccc1ccccc12`, the EC50 amounted to 1.3 µM with DU-145; 8.3 µM in the assay with MDA-MB-231; 1.3 µM in the assay with A549; 4.3 µM in the assay on ZR-75-1; 2.1 µM in the assay with KB; 1.6 µM in the assay with SK-BR-3. In assay [1], the EC50 is 0.84 µM.
As for `COc1ccccc1Nc1cc(=O)oc2c1ccc1ccccc12`, the EC50 was 0.76 µM in the assay with DU-145; 7.3 µM in the assay on MDA-MB-231; 0.6 µM in the assay on A549; 4.7 µM in the assay on ZR-75-1; 0.5 µM with KB; 0.64 µM with SK-BR-3. Moreover, in assay [1], the EC50 came out at 0.47 µM.
`CCc1cccc2c1ccc1c(NCC(=O)N(C)OC)cc(=O)oc12`: the EC50 in the assay on DU-145 is 16.2 µM; with MDA-MB-231, > 30 µM; in the assay on A549 it was 17.6 µM; in the assay with ZR-75-1 it was 18.2 µM; in the assay on KB, 21.5 µM; in the assay on SK-BR-3, 17.4 µM. Further, in assay [1], the EC50 turned out to be 19.7 µM.
Regarding `O=c1cc(Nc2cccc3ccccc23)c2ccc3ccccc3c2o1`, the EC50 was determined as 0.3 µM in the assay with DU-145; 0.47 µM in the assay with MDA-MB-231; 0.25 µM in the assay on A549; 0.53 µM in the assay on ZR-75-1; 0.27 µM with KB; 0.32 µM with SK-BR-3. In addition, in assay [1], the EC50 was found to be 0.2 µM.
As to `CCCN(CCC)c1cc(=O)oc2c1ccc1ccccc12`, the EC50 in the assay on DU-145 was > 30 µM; in the assay on MDA-MB-231 it was 30 µM; in the assay on A549, > 30 µM; with ZR-75-1 it was > 30 µM; in the assay on KB, > 30 µM; with SK-BR-3 it was > 30 µM. Moreover, the EC50 in assay [1] is 20.8 µM.
For `CON(C)C(=O)CNc1cc(=O)oc2c1ccc1ccccc12`, the EC50 with DU-145 is 3.2 µM; with MDA-MB-231 it was 5.8 µM; with A549 it was 3.1 µM; in the assay with ZR-75-1, 0.48 µM; in the assay on KB, 2.2 µM; with SK-BR-3 it was 4.5 µM. For the same molecule, the EC50 in assay [1] was found to be 3 µM.
As for `O=c1cc(Nc2ccccc2)c2ccc3ccccc3c2o1`, the EC50 in the assay with DU-145 is 0.82 µM; in the assay with MDA-MB-231, 0.27 µM; in the assay with A549, 0.98 µM; in the assay on ZR-75-1, 0.91 µM; in the assay on KB, 0.44 µM; in the assay with SK-BR-3 it was 1.6 µM. The EC50 in assay [1] was determined as 0.5 µM.
Take `Cc1ccc(Nc2cc(=O)oc3c2ccc2ccccc23)cc1`: the EC50 in the assay with DU-145 amounted to 0.37 µM; in the assay with MDA-MB-231, 15.3 µM; in the assay on A549, 0.25 µM; with ZR-75-1, 13 µM; in the assay with KB, 0.22 µM; in the assay on SK-BR-3, 0.38 µM. In assay [1], the EC50 amounted to 0.17 µM.
Turning to `CNc1cc(=O)oc2c1ccc1ccccc12`, the EC50 in the assay on DU-145, in the assay with MDA-MB-231, in the assay with A549, with ZR-75-1, in the assay with KB and in the assay with SK-BR-3 was > 30 µM in each case. In addition, in assay [1], the EC50 was > 30 µM.
For `CCCNc1cc(=O)oc2c1ccc1ccccc12`, the EC50 in the assay with DU-145 is > 30 µM; in the assay with MDA-MB-231, 19.8 µM; in the assay on A549, > 30 µM; in the assay on ZR-75-1, > 30 µM; in the assay with KB, > 30 µM; in the assay with SK-BR-3 it was > 30 µM. For the same molecule, the EC50 in assay [1] came to 10.6 µM.
For the molecule `CCc1ccc(Nc2cc(=O)oc3c2ccc2ccccc23)cc1`, the EC50 turned out to be 0.3 µM with DU-145; 1.4 µM with MDA-MB-231; 0.2 µM with A549; 0.79 µM in the assay with ZR-75-1; 0.28 µM in the assay with KB; 0.3 µM in the assay with SK-BR-3. Moreover, the EC50 in assay [1] was found to be 0.18 µM.
With `COc1ccc(Nc2cc(=O)oc3c2ccc2ccccc23)cc1`, the EC50 is 0.11 µM in the assay on DU-145; 0.02 µM in the assay on MDA-MB-231; 0.17 µM with A549; 0.01 µM in the assay on ZR-75-1; 0.11 µM in the assay on KB; 0.13 µM in the assay on SK-BR-3. Besides, in assay [1], the EC50 stood at 0.13 µM.
Consider `O=c1cc(Nc2ccc(F)cc2)c2ccc3ccccc3c2o1`, for which the EC50 is 0.78 µM in the assay on DU-145; > 30 µM in the assay with MDA-MB-231; 0.81 µM with A549; 3.2 µM with ZR-75-1; 1.2 µM in the assay with KB; 1.1 µM with SK-BR-3. Moreover, in assay [1], the EC50 was found to be 0.51 µM.
With `O=c1cc(N2CCOCC2)c2ccc3ccccc3c2o1`, the EC50 in the assay on DU-145 is > 30 µM; in the assay on MDA-MB-231, > 30 µM; in the assay on A549 it was > 30 µM; in the assay on ZR-75-1, 3.9 µM; with KB it was > 30 µM; in the assay on SK-BR-3, > 30 µM. The EC50 in assay [1] was > 30 µM.
For the molecule `Cc1cccc2c1ccc1c3occ(C)c3c(=O)oc21`, the EC50 with DU-145 is > 30 µM; with MDA-MB-231, > 30 µM; with A549, > 30 µM; with ZR-75-1 it was 0.95 µM; in the assay with KB it was > 30 µM; in the assay on SK-BR-3, 0.95 µM. Besides, in assay [1], the EC50 was > 30 µM.
